The Ki is a dissociation constant, usually derived from enzyme kinetics or from competition with a known ligand. Low values mean a stronger hold on the target, high ones a looser hold on the target. In general, half-life refers to the time in which the quantity being followed falls by half. Read a low half-life as fast loss.

Each structure is given as a SMILES string.

Data set [1] has as its target Fatty acid-binding protein, heart (Homo sapiens, UniProt P05413).
Description: Displacement of 1,8-ANS from N-terminal 6His-tagged full length FABP3 (unknown origin) expressed in Escherichia coli ER2566 assessed as inhibition constant preincubated with compound for 10 mins followed by 1,8-ANS addition and measured after 3 mins by fluorescence based analysis
A short description of data set [2]: in vitro. The following applies: human, liver microsomes.
Description: Metabolic stability in human liver microsomes assessed as half life at 1 uM preincubated with compound for 10 mins followed by NADPH addition and measured upto 60 mins by LC-MS/MS analysis
Data set [3] in a line: in vitro. The note with it: mouse, liver microsomes. In general terms: Liver microsomes are a subcellular fraction often used to study metabolism.
Description: Metabolic stability in mouse liver microsomes assessed as half life at 1 uM preincubated with compound for 10 mins followed by NADPH addition and measured upto 60 mins by LC-MS/MS analysis
A short description of data set [4]: in vitro. The note with it: human, liver microsomes. This is another data set of the same source.
Description: Metabolic stability in human liver microsomes assessed as metabolic bioavailability at 1 uM preincubated with compound for 10 mins followed by NADPH addition and measured upto 60 mins by LC-MS/MS analysis
The nature of data set [5]: in vitro. The following applies: mouse, liver microsomes. The source holds these as a separate data set.
Description: Metabolic stability in mouse liver microsomes assessed as metabolic bioavailability at 1 uM preincubated with compound for 10 mins followed by NADPH addition and measured upto 60 mins by LC-MS/MS analysis
In data set [6] the target is Fatty acid-binding protein, adipocyte (Homo sapiens, UniProt P15090).
Description: Displacement of 1,8-ANS from N-terminal 6His-tagged full length FABP4 (unknown origin) expressed in Escherichia coli ER2566 assessed as inhibition constant preincubated with compound for 10 mins followed by 1,8-ANS addition and measured after 3 mins by fluorescence based analysis
The next data set concerns FABP3 versus FABP4. Put plainly: in vitro. The note with it: probe 1,8-ANS.

Sequence of Fatty acid-binding protein, heart (P05413 whole entry): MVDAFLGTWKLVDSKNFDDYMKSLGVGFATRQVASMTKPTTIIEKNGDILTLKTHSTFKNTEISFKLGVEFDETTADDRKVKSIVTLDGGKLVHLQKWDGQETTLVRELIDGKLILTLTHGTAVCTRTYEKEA
Sequence of Fatty acid-binding protein, adipocyte (P15090 whole entry): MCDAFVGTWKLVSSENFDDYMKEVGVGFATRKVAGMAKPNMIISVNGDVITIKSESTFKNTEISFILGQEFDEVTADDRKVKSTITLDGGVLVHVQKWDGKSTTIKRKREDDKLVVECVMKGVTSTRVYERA
Description for FABP3 versus FABP4: Selectivity index, ratio of Ki for displacement of 1,8-ANS from N-terminal 6His-tagged full length FABP3 (unknown origin) expressed in Escherichia coli ER2566 to Ki for displacement of 1,8-ANS from N-terminal 6His-tagged full length FABP4 (unknown origin) expressed in Escherichia coli ER2566

`O=C(O)c1cc(F)ccc1Nc1cccc(Cl)c1-c1ccccc1`: the Ki in data set [1] was 0.37 µM. That is a sub-micromolar value.

As for `O=C(O)c1ccccc1Nc1cccc(Cl)c1-c1ccccc1`, the half-life at 1 h, 1 µM in “in vitro [2]” was 33.5 min; in the data set “in vitro [3]” it was 31.4 min. Also, the Fh at 1 h, 1 µM worked out at 24% in the data set “in vitro [4]” and 39.9% in “in vitro [5]”. In turn, `O=C(O)c1cc(Cl)ccc1Nc1cccc(Cl)c1-c1ccccc1` had a Ki in data set [1] of 1.29 µM. For `COc1cccc(Nc2cccc(Cl)c2-c2ccccc2)c1C(=O)O`, the Ki in data set [1] was > 5 µM. `COc1ccc(Nc2cccc(Cl)c2-c2ccccc2)c(C(=O)O)c1`: the Ki was 359 nM in data set [6] and 2.19 µM in data set [1]. Further, in the data set with FABP3 versus FABP4, the selectivity ratio was 6.

`Cc1cccc(Nc2cccc(Cl)c2-c2ccccc2)c1C(=O)O` displayed a Ki in data set [1] of 15 µM. Still for that read-out and setting: then `Cc1ccc(Nc2cccc(Cl)c2-c2ccccc2)c(C(=O)O)c1`, with 7.46 µM; and `O=C(O)c1c(Cl)cccc1Nc1cccc(Cl)c1-c1ccccc1`, with 5.18 µM. Compound `Cc1cccc(Nc2cccc(Cl)c2-c2ccc3c(c2)CCO3)c1C(=O)O` yielded a Ki in data set [1] of 15.4 µM.

`Cc1c(F)ccc(Nc2cccc(Cl)c2-c2ccccc2)c1C(=O)O` came in with a Ki in data set [1] of 4 µM. The same measure, in the same setting: as for `Cc1c(F)ccc(Nc2cccc(Cl)c2-c2ccc3c(c2)CCO3)c1C(=O)O`, the figure is 7.51 µM.
